In US11554084B2, “Compositions incorporating avobenzone-calix[8]-PO3H2 complex” (University of Cincinnati, priority 2020, dated 2023):

How the values were obtained:
[1] = Neutron reflectometry (NR) of tethered POPC / POPC-d31 lipid bilayer membranes incubated with the substance and after rinse; type: physicochemical; settings: for Peak of avobenzone CVO from bilayer center / Surface volume density: co-refined POPC-d31 and POPC
Method: The interaction of avobenzone and calix[8]-PO3H2 was tested with single-membrane POPC (1-palmitoyl-2-oleoyl-sn-glycero-3-phosphocholine) tethered lipid bilayer membranes (tBLMs). Solvent-immersed tBLMs allowed for a characterization of the membrane before and after addition of avobenzone and calix[8]-PO3H2 from solution, thus mimicking the encounter of those substances by the membrane in the body. This differentiates tBLMs from conventionally used stacked lipid bilayer model systems in air. The chemical structure of the glycerophospholipid POPC consists of a zwitterionic phosphatidylcholine headgroup linked to a glycerol, which is ester-bound to two fatty acid groups—palmitic acid (C16:0) and oleic acid (C18:1). This fatty acid composition mimics that of phospholipids mainly found in the eukaryotic cell membrane, including keratinocytes. In addition to phospholipids, native eukaryotic membranes also contain glycolipids, sterols and various proteins, which are not included in the current simplified model system.
Neutron Reflectometry (NR) experiments were conducted with hydrogenated and deuterated POPC bilayers. Both data sets were simultaneously analyzed to obtain one structural model. NR measurements were performed with the CGD-Magik reflectometer at the NIST Center for Neutron Research (NCNR). Reflectivity curves were recorded for momentum transfer values 0.01≤qz≤0.25 Å^−1. For each measurement, adequate counting statistics were obtained after 5-7 h. The NCNR fluids cell allows for in situ solvent exchange; therefore, subsequent measurements were performed on the same sample area. The entire flow cell was maintained at room temperature (RT). Solvent exchange was accomplished by rinsing ˜10 ml of water through the cell (volume ˜1.3 ml) using a syringe.
A set of NR experiments was conducted with a hydrogenated POPC bilayer and another identical set of experiments with a deuterated POPC-d31 bilayer. After measurement of the as-prepared bilayer in H2O and D2O, avobenzone was added to the sample cell at a concentration of 100 μM dissolved in H2O and D2O. NR measurements were conducted while the bilayer was in contact with either solution. The sample was measured again after rinsing with H2O and D2O, respectively. Data for both bilayers were co-refined sharing conserved model parameters across data sets, in particular those associated with the volume profile of avobenzone. […] An identical set of measurements were performed with a 100 μM complex of 1:1 avobenzone:calix[8]-PO3H2 instead of pure avobenzone.
1D-component volume occupancy (CVO) profiles along the lipid bilayer normal were obtained. Bilayer fit parameters were the hydrocarbon thickness for each bilayer subsection, the bilayer completeness, and the thickness of the sub-membrane space. One roughness parameter was applied to all distributions. The thin layer of native silicon oxide was modelled by a single distribution with individual roughness and thickness parameters. Hermite splines defined by control points that were on average 15 Å apart were used to model the CVO profiles of avobenzone and calix[8]-PO3H2. The number of control points was iteratively refined during model optimization for each CVO profile. Fit parameters associated with each control point were a volume occupancy, a deviation from equidistant separation, and (for the CVO profile of the complex) a nSLD (neutron scattering length density) value between those of avobenzone and calix[8]-PO3H2. Such a variable nSLD per control point allowed us to separate individual CVO profiles for avobenzone (average nSLD ρ=1.37×10^−6 Å^−2) and calix[8]-PO3H2 (ρ=2.73×10^−6 […]). The exchange of labile protons in isotopically different buffers affects the nSLD of molecular components and was taken into account during data analysis. Optimization of model parameters was performed using the ga_refl and Refl1D software packages developed at the NCNR. […]

[2] = once exposed to sun; cited from earlier work
human cell lines = settings: cited from earlier work
rat cell lines = settings: cited from earlier work
[3] = avobenzone alone, 100 μM incubation

Peak of avobenzone CVO from bilayer center [1, 3] | Surface volume density [1, 3] | Peak of avobenzone CVO from bilayer center ([1]; avobenzone alone, Rinse) | Surface volume density ([1]; avobenzone alone, Rinse) | SMILES | 1 avobenzone per n lipids in outer leaflet ([1]; avobenzone alone, Rinse) | Penetration of the lipid bilayer (in words) ([1]; interacts at hydrocarbon/headgroup interface of the substrate-distal leaflet) | Duration of photoprotection [2] | Toxicity towards human cell lines (human cell lines) | Toxicity towards rat cell lines (rat cell lines)
10±3 Å | 3.0±0.5 Å^3/Å^2 | 7±3 Å | 3.8±0.4 Å^3/Å^2 | COc1ccc(C(=O)CC(=O)c2ccc(C(C)(C)C)cc2)cc1 [avobenzone, 1-(4-methoxyphenyl)-3-(4-tertbutylphenyl)-propane-1,3-dione] | ~1 avobenzone per 2.1 lipids in outer leaflet | without penetrating the bilayer to the substrate-proximal leaflet | 30 min |  | 
 |  |  |  | O=P(O)(O)c1cc2c(O)c(c1)Cc1cc(P(=O)(O)O)cc(c1O)Cc1cc(P(=O)(O)O)cc(c1O)Cc1cc(P(=O)(O)O)cc(c1O)Cc1cc(P(=O)(O)O)cc(c1O)Cc1cc(P(=O)(O)O)cc(c1O)Cc1cc(P(=O)(O)O)cc(c1O)Cc1cc(P(=O)(O)O)cc(c1O)C2 [calix[8]-PO3H2, p-phosphonated calix[8]arene] |  |  |  | non-toxic | non-toxic
